# Where two headings read alike, the source gives them in different places.
# What was measured:
# [1] = molecular target: NAMPT (Homo sapiens (Human), UniProt P43490); assay: NAMPT biochemical inhibition assay (NMN quantified by mass spectrometry); conditions: NAMPT biochemical inhibition; read-out: Biochem IC50
# [2] = tested on: A2780 cells; assay: In-vitro cell proliferation assay (SRB), A2780 cells; type: cell-based; conditions: A2780 cells, 72 hours, SRB, read-out: A2780 IC50;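 further: viable cell number read as SRB absorbance, background from media-only wells subtracted, IC50 interpolated from percent inhibition at two bracketing compound concentrations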
# NAMPT, sequence (P43490 whole entry): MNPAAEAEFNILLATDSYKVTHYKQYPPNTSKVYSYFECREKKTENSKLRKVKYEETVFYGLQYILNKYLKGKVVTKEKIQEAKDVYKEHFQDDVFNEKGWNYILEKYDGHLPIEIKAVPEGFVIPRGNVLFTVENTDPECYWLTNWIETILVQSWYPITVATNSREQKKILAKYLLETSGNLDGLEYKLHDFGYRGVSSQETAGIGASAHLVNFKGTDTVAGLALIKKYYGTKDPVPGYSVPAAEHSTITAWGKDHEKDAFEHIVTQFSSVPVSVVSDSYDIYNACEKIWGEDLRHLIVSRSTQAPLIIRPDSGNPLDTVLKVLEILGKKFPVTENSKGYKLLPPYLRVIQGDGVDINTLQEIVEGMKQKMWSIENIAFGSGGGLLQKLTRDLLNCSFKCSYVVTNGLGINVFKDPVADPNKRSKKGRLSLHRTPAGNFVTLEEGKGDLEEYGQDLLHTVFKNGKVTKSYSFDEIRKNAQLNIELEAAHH
IC50 [1] [nM],"IC50 ([2]; Homo sapiens, A2780, 72 h) [nM]",SMILES,IC50 [2] [nM]
1.6,100 to 1000,COc1ccc2cc(S(=O)(=O)c3ccc(NC(=O)NCc4cccnc4)cc3)ccc2c1 [3-[4-(6-methoxynaphthalene-2-sulfonyl)phenyl]-1-(pyridin-3-ylmethyl)urea],–
5,100 to 1000,COc1ccc(S(=O)(=O)c2ccc(NC(=O)NCc3cccnc3)cc2)cn1 [3-[4-(6-methoxypyridine-3-sulfonyl)phenyl]-1-(pyridin-3-ylmethyl)urea],–
4.9,100 to 1000,Cc1ccc(S(=O)(=O)c2ccc(NC(=O)NCc3cccnc3)cc2)cn1 [3-[4-(6-methylpyridine-3-sulfonyl)phenyl]-1-(pyridin-3-ylmethyl)urea],–
90,15900,O=C(Nc1ccc(S(=O)(=O)c2ccccc2)cc1)Nc1ccc2ncccc2c1 [3-[4-(benzenesulfonyl)phenyl]-1-(quinolin-6-yl)urea],–
3790,> 10000,O=C(NCc1ccc(-n2cccn2)nc1)Nc1ccc(S(=O)(=O)c2ccccc2)cc1 [3-[4-(benzenesulfonyl)phenyl]-1-{[6-(1H-pyrazol-1-yl)pyridin-3-yl]methyl}urea],–
2120,> 10000,COCCOc1ccc(CNC(=O)Nc2ccc(S(=O)(=O)c3ccccc3)cc2)cn1 [3-[4-(benzenesulfonyl)phenyl]-1-{[6-(2-methoxyethoxy)pyridin-3-yl]methyl}urea],–
273,> 30000,O=C(NCc1cnccn1)Nc1ccc(S(=O)(=O)N2CCCCC2)cc1 [3-[4-(piperidine-1-sulfonyl)phenyl]-1-(pyrazin-2-ylmethyl)urea],–
1140,> 30000,O=C(NCc1cncnc1)Nc1ccc(S(=O)(=O)N2CCCCC2)cc1 [3-[4-(piperidine-1-sulfonyl)phenyl]-1-(pyrimidin-5-ylmethyl)urea],–
22100,> 30000,CC(NC(=O)Nc1ccc(S(=O)(=O)N2CCCCC2)cc1)c1cccnc1 (stereo not shown) [3-[4-(piperidine-1-sulfonyl)phenyl]-1-[1-(pyridin-3-yl)ethyl]urea],–
189,> 30000,O=C(NCc1ccc(C(F)(F)F)nc1)Nc1ccc(S(=O)(=O)N2CCCCC2)cc1 [3-[4-(piperidine-1-sulfonyl)phenyl]-1-{[6-(trifluoromethyl)pyridin-3-yl]methyl]urea],–
12,88,C[C@H](O)COc1ccccc1NS(=O)(=O)c1ccc(NC(=O)NCc2cccnc2)cc1 [3-[4-({2-[(2S)-2-hydroxypropoxy]phenyl}sulfamoyl)phenyl]-1-(pyridin-3-ylmethyl)urea],–
7,164,C[C@H](O)c1cccc(NS(=O)(=O)c2ccc(NC(=O)NCc3cccnc3)cc2)c1 [3-[4-({3-[(1S)-1-hydroxyethyl]phenyl}sulfamoyl)phenyl]-1-(pyridin-3-ylmethyl)urea],–
3,148,CN(C)c1ccc(CNS(=O)(=O)c2ccc(NC(=O)NCc3cccnc3)cc2)cc1 [3-[4-({[4-(dimethylamino)phenyl]methyl}sulfamoyl)phenyl]-1-(pyridin-3-ylmethyl)urea],–
8,1000 to 10000,NC(=O)c1cccc(S(=O)(=O)c2ccc(NC(=O)NCc3cccnc3)cc2)c1 [3-[(4-{[(pyridin-3-ylmethyl)carbamoyl]amino[benzene)sulfonyl]benzamide],–
48,18000,O=C(NCc1cncc(Cl)c1)Nc1ccc(S(=O)(=O)N2CCCCC2)cc1 [3-[(5-chloropyridin-3-yl)methyl]-1-[4-(piperidine-1-sulfonyl)phenyl]urea],–
8.5,71.4,Nc1ccc(CNC(=O)Nc2ccc(S(=O)(=O)N3CCCCC3)cc2)cn1 [3-[(6-aminopyridin-3-yl)methyl]-1-[4-(piperidine-1-sulfonyl)phenyl]urea],–
8,> 30000,O=C(NCc1ccc(Cl)nc1)Nc1ccc(S(=O)(=O)N2CCCCC2)cc1 [3-[(6-chloropyridin-3-yl)methyl]-1-[4-(piperidine-1-sulfonyl)phenyl]urea],–
3.5,1.7,"CCN(CC)C(=O)c1cc(Cl)cc(S(=O)(=O)c2ccc(NC(=O)NCc3cccnc3)cc2)c1 [3-chloro-N,N-diethyl-5-[(4-{[(pyridin-3-ylmethyl)carbamoyl]amino}benzene)sulfonyl]benzamide]",–
1.5,13.3,"CN(C)C(=O)c1cc(F)cc(S(=O)(=O)c2ccc(NC(=O)NCc3cccnc3)cc2)c1 [3-fluoro-N,N-dimethyl-5-[(4-{[(pyridin-3-ylmethyl)carbamoyl]amino}benzene)sulfonyl]benzamide]",–
5.9,100 to 1000,CN(C)c1ncc(S(=O)(=O)c2ccc(NC(=O)NCc3cccnc3)cc2)cn1 [3-{4-[2-(dimethylamino)pyrimidine-5-sulfonyl]phenyl}-1-(pyridin-3-ylmethyl)urea],–

# The remaining lines, values behind:
SMILES,IC50 [1] [nM],"IC50 ([2]; Homo sapiens, A2780, 72 h) [nM]",IC50 [2] [nM]
O=C(NCc1cccnc1)Nc1ccc(S(=O)(=O)c2ccc(C(=O)N3CCCC3)cc2)cc1 [3-(pyridin-3-ylmethyl)-1-[4-({4-[(pyrrolidin-1-yl)carbonyl]benzene}sulfonyl)phenyl]urea],1.3,7.6,–
O=C(NCc1cccnc1)Nc1ccc(S(=O)(=O)N2CCC[C@H](C(=O)N3CCCC3)C2)cc1 [3-(pyridin-3-ylmethyl)-1-{4-[(3S)-3-[(pyrrolidin-1-yl)carbonyl]piperidine-1-sulfonyl]phenyl}urea],9,137,–
"O=C(NCc1cccnc1)Nc1ccc(S(=O)(=O)Nc2cccc3c2CCCC3)cc1 [3-(pyridin-3-ylmethyl)-1-{4-[(5,6,7,8-tetrahydronaphthalen-1-yl)sulfamoyl]phenyl}urea]",0.3,45,–
O=C(NCc1cccnc1)Nc1ccc(S(=O)(=O)N2CCCCC2)cc1F [3-[2-fluoro-4-(piperidine-1-sulfonyl)phenyl]-1-(pyridin-3-ylmethyl)urea],23,1000,–
Cn1ncc2c(S(=O)(=O)c3ccc(NC(=O)NCc4cccnc4)cc3)cccc21 [3-[4-(1-methyl-1H-indazole-4-sulfonyl)phenyl]-1-(pyridin-3-ylmethyl)urea],1,59.9,–
Cn1ncc2cc(S(=O)(=O)c3ccc(NC(=O)NCc4cccnc4)cc3)ccc21 [3-[4-(1-methyl-1H-indazole-5-sulfonyl)phenyl]-1-(pyridin-3-ylmethyl)urea],1.8,92.5,–
Cn1ncc2ccc(S(=O)(=O)c3ccc(NC(=O)NCc4cccnc4)cc3)cc21 [3-[4-(1-methyl-1H-indazole-6-sulfonyl)phenyl]-1-(pyridin-3-ylmethyl)urea],2.5,35.4,–
Cn1ncc2cccc(S(=O)(=O)c3ccc(NC(=O)NCc4cccnc4)cc3)c21 [3-[4-(1-methyl-1H-indazole-7-sulfonyl)phenyl]-1-(pyridin-3-ylmethyl)urea],14.4,100 to 1000,–
Cn1c(S(=O)(=O)c2ccc(NC(=O)NCc3cccnc3)cc2)cc2ccccc21 [3-[4-(1-methyl-1H-indole-2-sulfonyl)phenyl]-1-(pyridin-3-ylmethyl)urea],3,63.5,–
CCCn1cc(S(=O)(=O)c2ccc(NC(=O)NCc3cccnc3)cc2)cn1 [3-[4-(1-propyl-1H-pyrazole-4-sulfonyl)phenyl]-1-(pyridin-3-ylmethyl)urea],6.3,13.1,–
"O=C(NCc1cccnc1)Nc1ccc(S(=O)(=O)N2CCc3ccccc32)cc1 [3-[4-(2,3-dihydro-1H-indole-1-sulfonyl)phenyl]-1-(pyridin-3-ylmethyl)urea]",2,31,–
"COc1ncc(S(=O)(=O)c2ccc(NC(=O)NCc3cccnc3)cc2)c(OC)n1 [3-[4-(2,4-dimethoxypyrimidine-5-sulfonyl)phenyl]-1-(pyridin-3-ylmethyl)urea]",6.7,21,–
COc1ccc2ccccc2c1S(=O)(=O)c1ccc(NC(=O)NCc2cccnc2)cc1 [3-[4-(2-methoxynaphthalene-1-sulfonyl)phenyl]-1-(pyridin-3-ylmethyl)urea],2,12,–
COc1ncc(S(=O)(=O)c2ccc(NC(=O)NCc3cccnc3)cc2)cn1 [3-[4-(2-methoxypyrimidine-5-sulfonyl)phenyl]-1-(pyridin-3-ylmethyl)urea],8.7,100 to 1000,–
Cc1ncccc1S(=O)(=O)c1ccc(NC(=O)NCc2cccnc2)cc1 [3-[4-(2-methylpyridine-3-sulfonyl)phenyl]-1-(pyridin-3-ylmethyl)urea],7.2,100 to 1000,–
"O=C(NCc1cccnc1)Nc1ccc(S(=O)(=O)N2CC(F)(F)C2)cc1 [3-[4-(3,3-difluoroazetidine-1-sulfonyl)phenyl]-1-(pyridin-3-ylmethyl)urea]",59,7860,–
"Cc1noc(C)c1S(=O)(=O)c1ccc(NC(=O)NCc2cccnc2)cc1 [3-[4-(3,5-dimethyl-1,2-oxazole-4-sulfonyl)phenyl]-1-(pyridin-3-ylmethyl)urea]",20,850,–
CC(C)c1ccc(CN2CCN(S(=O)(=O)c3ccc(NC(=O)NCc4cccnc4)cc3)CC2)cc1 [3-[4-(4-{[4-(propan-2-yl)phenyl]methyl[piperazine-1-sulfonyl)phenyl]-1-(pyridin-3-ylmethyl)urea],35.8,–,1000 to 10000
O=C(NCc1cccnc1)Nc1ccc(S(=O)(=O)c2cncc(Cl)c2)cc1 [3-[4-(5-chloropyridine-3-sulfonyl)phenyl]-1-(pyridin-3-ylmethyl)urea],2.6,98.2,–
O=C(NCc1cccnc1)Nc1ccc(S(=O)(=O)c2cncc(F)c2)cc1 [3-[4-(5-fluoropyridine-3-sulfonyl)phenyl]-1-(pyridin-3-ylmethyl)urea],8.7,100 to 1000,–
Cc1ccc(S(=O)(=O)c2ccc(NC(=O)NCc3cccnc3)cc2)s1 [3-[4-(5-methylthiophene-2-sulfonyl)phenyl]-1-(pyridin-3-ylmethyl)urea],3,383,–

# Source: patent US11279687B2, “Compounds and compositions for the inhibition of NAMPT” (Valo Health, Inc., priority 2010, dated 2022)
